Measured values from PMC11354370, “Inducing Receptor Degradation as a Novel Approach to Target CC Chemokine Receptor 2 (CCR2)” (International Journal of Molecular Sciences, 2024).
Where two headings read alike, the source gives them in different places. Peptide text beside a SMILES is read from it. * marks the point of attachment. Cbz = O=C(OCc1ccccc1)*

Assays:
CCR2-HaloTag-HiBiT [1] = assay: Lytic HiBiT assay with inhibitor pretreatment (2 h) then vehicle or HaloPROTAC3 (3 h); type: cell-based, human; details: 5 µg plasmid; for HaloPROTAC3-mediated CCR2 degradation after pretreatment with the inhibitor: inhibitor 2 h pretreatment, then 1 µM HaloPROTAC3 3 h
Description: To investigate the mechanism of action of HaloPROTAC3-induced degradation of CCR2-HaloTag-HiBiT, we pretreated the cells with a variety of inhibitors. […] After 2 h, the cells were treated with vehicle or HaloPROTAC3 (1µM) and degradation was measured after 3 h of HaloPROTAC3 treatment or vehicle control.
Next, we explored whether degradation occurs via the proteasomal or the lysosomal pathway. […] Finally, we included cycloheximide as an inhibitor of protein synthesis.
Fractional RLU values were calculated from the resulting baseline-corrected values by normalizing all values at a given time point to the vehicle-control value. For lytic HiBiT assays, data are presented as % of vehicle-control; for real-time HiBiT assays, data are presented as fractional RLUs, which corresponds to the ratio between the baseline-corrected RLU values of a compound and the RLU values of the vehicle at any given time point. […] To calculate the degradation rate (K) from real-time HiBiT assays, the degradation curves were fitted to a one-phase exponential decay model following the equation Y = (Y0 − Plateau)e^−Kt + Plateau.

CCR2-HaloTag-HiBiT [2] = molecular target: T1, CCR2-HaloTag-HiBiT (UniProt P0A3G2+P41597, A155T/A167V/A172T/A224E/C128F/C176G/D78G/E160K/E257K/H272N/K175M/K195N/L47V/L88M/N227D/S58T/T264A/Y273L/Y87F); type: cell-based, human
CCR2-HaloTag-HiBiT [3] = molecular target: T1, CCR2-HaloTag-HiBiT; type: cell-based, human; details: for Dmax ± SEM (maximal degradation): determined at 1 µM, negative values represent an increase in CCR2 levels
CCR2-HaloTag-HiBiT [4] = molecular target: T2, CCR2-HaloTag-HiBiT (Homo sapiens, UniProt P41597); type: cell-based
T2 construct: host or cells: A549 cells, lentiviral transduction, single-cell clones #25, #26, #27
Text: While the HiBiT luminescence approach provides a good platform for high-throughput screening of targeted protein degradation, integral membrane protein degradation studies benefit from information about their localization. […] To mitigate the need for transfection, we transduced A549 cells with lentiviral particles for stable integration of expression cassettes for CCR2-HaloTag-HiBiT expression constructs, followed by antibiotic selection and limiting dilution to generate single-cell clones.
A549 cells were seeded at 400,000 cells per well in 6 well dishes to be approximately 50% confluent the next day. For seeding 1.5 mL of cell-containing medium was used. A total of 500 µL of lentiviral particles and 1.6 µL of polybrene (Sigma-Aldrich, Merck, Darmstadt, Germany) were added on top, and cells were incubated overnight. The next day, cells were washed two to three times in PBS and a growth medium containing 100 µg/mL of hygromycin B at 100 µg/mL was added. Cells were incubated until non-transduced cells were dead or until transduced cells were confluent (in which case they were split into a bigger flask in a hygromycin selection medium). After selection, cells were diluted to 0.5 cells/200 µL in a growth medium containing 20% FCS, and 96 well plates were seeded with 200 µL per well. Single-cell clones were grown back up to bigger populations and screened by immunofluorescence for HiBiT expression.
A549 CCR2b-HALO-HiBiT expressing cells were seeded onto 384-well plates suitable for high-throughput microscopy (PerkinElmer, Groningen, The Netherlands; Corning, NY, USA) with a density ranging from 2000–4000 cells per well. The next day, plates were treated with different concentrations of HaloPROTAC3 or ent-HaloPROTAC3 using a Tecan D300e digital dispenser. […] Cells were then washed three times in PBS and simultaneously permeabilized and blocked for an hour using a modified blocking buffer (0.1% Triton (v/v), 1% BSA (w/v) (Sigma, A7030, Merck, Darmstadt, Germany)). […] Plates were imaged on either Yokogawa CV7000 or CV8000 systems with appropriate settings for detection of each relevant channel. Images were analyzed using Columbus image analysis.

CCR2-HaloTag-HiBiT [5] = molecular target: T1, CCR2-HaloTag-HiBiT; type: cell-based, human; details: 1 µM pretreatment 3 h, then 60 nM CCL2; HEK293T CCR2-HaloTag-HiBiT
CCR2-HaloTag-HiBiT [6] = molecular target: T1, CCR2-HaloTag-HiBiT; assay: xCELLigence label-free impedance assay, CCL2 stimulation of HEK293T cells transfected with CCR2-HaloTag-HiBiT; details: HEK293T cells expressing CCR2-HaloTag-HiBiT

T2 sequence (P41597 other isoform, or with tags, fused parts or gaps): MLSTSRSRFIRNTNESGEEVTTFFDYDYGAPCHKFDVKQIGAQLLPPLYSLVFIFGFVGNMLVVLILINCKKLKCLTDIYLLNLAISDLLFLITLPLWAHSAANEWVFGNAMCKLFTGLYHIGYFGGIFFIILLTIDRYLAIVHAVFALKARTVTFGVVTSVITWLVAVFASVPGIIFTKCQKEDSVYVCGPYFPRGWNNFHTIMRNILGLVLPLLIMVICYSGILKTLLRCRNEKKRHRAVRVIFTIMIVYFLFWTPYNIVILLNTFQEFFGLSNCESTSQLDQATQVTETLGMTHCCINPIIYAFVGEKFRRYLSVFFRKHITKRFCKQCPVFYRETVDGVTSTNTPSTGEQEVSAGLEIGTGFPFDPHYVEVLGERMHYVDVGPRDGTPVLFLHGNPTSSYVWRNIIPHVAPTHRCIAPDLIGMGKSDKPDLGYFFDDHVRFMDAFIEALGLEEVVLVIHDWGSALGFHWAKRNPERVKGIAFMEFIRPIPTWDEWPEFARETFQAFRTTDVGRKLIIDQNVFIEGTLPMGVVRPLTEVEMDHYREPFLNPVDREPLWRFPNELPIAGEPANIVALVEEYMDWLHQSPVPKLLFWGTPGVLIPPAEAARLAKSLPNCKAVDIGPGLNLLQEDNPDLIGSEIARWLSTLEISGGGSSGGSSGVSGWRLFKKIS
T1 sequence (P41597+P0A3G2 fused with the stated changes): as the sequence (P41597 other isoform, or with tags, fused parts or gaps) above

CC(C)C[C@@H](C=O)NC(=O)[C@H](CC(C)C)NC(=O)[C@H](CC(C)C)NC(=O)OCc1ccccc1 [MG-132] (Cbz-Leu-Leu-Leu-aldehyde)
HaloPROTAC3-mediated CCR2 degradation after pretreatment with the inhibitor (CCR2-HaloTag-HiBiT [1]): partially or fully recovered
reduction in CCR2 levels, exclusive treatment with inhibitor (CCR2-HaloTag-HiBiT [1]; inhibitor 2 h then vehicle 3 h): not observed

NS(=O)(=O)OC[C@@H]1C[C@@H](n2ccc3c(N[C@H]4CCc5ccccc54)ncnc32)C[C@@H]1O [MLN-4924, Pevonedistat]
HaloPROTAC3-mediated CCR2 degradation after pretreatment with the inhibitor (CCR2-HaloTag-HiBiT [1]): fully prevented
reduction in CCR2 levels, exclusive treatment with inhibitor (CCR2-HaloTag-HiBiT [1]; inhibitor 2 h then vehicle 3 h): 24%

C[C@@H]1C[C@@H]([C@H](O)CC2CC(=O)NC(=O)C2)C(=O)[C@@H](C)C1 [cycloheximide]
native degradation rate (Knative) of CCR2-HaloTag-HiBiT (CCR2-HaloTag-HiBiT [2]; 10 µM cycloheximide, up to 24 h): 0.25 ± 0.01 h⁻¹
HaloPROTAC3-mediated CCR2 degradation after pretreatment with the inhibitor (CCR2-HaloTag-HiBiT [1]): not affected
reduction in CCR2 levels, exclusive treatment with inhibitor (CCR2-HaloTag-HiBiT [1]; inhibitor 2 h then vehicle 3 h): more than 50%

CCN(CC)CCCC(C)Nc1ccnc2cc(Cl)ccc12 (stereo not shown) [chloroquine, Chloroquine diphosphate]
effect on receptor levels, inhibitor on its own (CCR2-HaloTag-HiBiT [1]; inhibitor 2 h then vehicle 3 h): not affected

CO/C1=C\C(C)=C\[C@@H](C)[C@@H](O)[C@@H](C)C/C(C)=C/C=C/[C@H](OC)[C@@H]([C@@H](C)[C@@H](O)[C@H](C)[C@@]2(O)C[C@@H](O)[C@H](C)[C@@H](C(C)C)O2)OC1=O [Bafilomycin-A1, Bafilomycin A1]
increase in CCR2-HaloTag-HiBiT levels, exclusive treatment with inhibitor (CCR2-HaloTag-HiBiT [1]; inhibitor 2 h then vehicle 3 h): > 30%

Cc1ncsc1-c1ccc(CNC(=O)[C@H]2C[C@H](O)CN2C(=O)[C@@H](C(C)C)N2Cc3ccccc3C2=O)c(OCCOCCOCCOCCCCCCCl)c1 [ent-HaloPROTAC3]
decrease in CCR2 levels (luminescent signal) compared to vehicle control (CCR2-HaloTag-HiBiT [3]; 1 µM, 24 h, 5 µg plasmid): comparable to vehicle control
Dmax ± SEM (maximal degradation) (CCR2-HaloTag-HiBiT [3]; 24 h): −1 ± 4%
CCR2 levels upon titration of compound (normalized to vehicle control 100%) (CCR2-HaloTag-HiBiT [3]; multiple concentrations, 24 h, maximal level reached): remained unchanged
CCR2 levels over 24 h (CCR2-HaloTag-HiBiT [2]; 1 µM, all DNA plasmid concentrations (1, 3, 5 µg; Figure S5)): remained unchanged
change of CCR2 levels, multiple concentrations (CCR2-HaloTag-HiBiT [2]; 3 µg plasmid, 24 h): did not change CCR2 levels at any of the concentrations tested
effect on HiBiT immunofluorescence signal (CCR2-HaloTag-HiBiT [4]; 1 µM, 24 h, A549 clones): appeared to increase the signal throughout the cell
remaining CCL2 response (AUC first 20 min, normalized to 60 nM CCL2 alone) (CCR2-HaloTag-HiBiT [5]): 85 ± 10%

COc1cc(C(=O)O)ccc1NC(=O)[C@@H]1N[C@@H](CC(C)(C)C)[C@](C#N)(c2ccc(Cl)cc2F)[C@H]1c1cccc(Cl)c1F [idasanutlin]
HaloPROTAC3-mediated CCR2 degradation after pretreatment with the inhibitor (CCR2-HaloTag-HiBiT [1]): neither pomalidomide nor idasanutlin had an effect

Cc1ncsc1-c1ccc(CNC(=O)[C@@H]2C[C@@H](O)CN2C(=O)[C@H](C(C)C)N2Cc3ccccc3C2=O)c(OCCOCCOCCOCCCCCCCl)c1 [HaloPROTAC3]
decrease in CCR2 levels (luminescent signal) compared to vehicle control (CCR2-HaloTag-HiBiT [3]; 1 µM, 24 h, 5 µg plasmid): ~ 35%
CCR2 degraded, time course (CCR2-HaloTag-HiBiT [3]; 1 µM, after 4 h, 5 µg plasmid (Figure S4)): Approximately 20%
CCR2 degraded, time course (CCR2-HaloTag-HiBiT [3]; 1 µM, after 24 h, 5 µg plasmid (Figure S4)): 26%
CCR2 degraded, time course (maximum degradation) (CCR2-HaloTag-HiBiT [3]; 1 µM, by 6 h, 5 µg plasmid (Figure S4)): 24%
pDC50 ± SEM (apparent potency of degradation) (CCR2-HaloTag-HiBiT [3]; 24 h, 5 µg plasmid): 7.4 ± 0.01
DC50 (CCR2-HaloTag-HiBiT [3]; 24 h, 5 µg plasmid, read-out: DC50 (apparent degradation potency) (converted)): 42 nM
Dmax ± SEM (maximal degradation) (CCR2-HaloTag-HiBiT [3]; 24 h): 38 ± 5%
degradation of CCR2-HaloTag-HiBiT depending on the protein expression levels (CCR2-HaloTag-HiBiT [3]; summary over lytic and real-time HiBiT assays (Figure 2 and Figure 3)): 30–80%
degradation achieved after 3 h treatment (CCR2-HaloTag-HiBiT [2]; 1 µM (Figure 3B,F)): > 70%
degradation rate compared with cycloheximide on its own (CCR2-HaloTag-HiBiT [2]; 1 µM HaloPROTAC3 in absence or presence of 10 µM cycloheximide): higher than that determined by cycloheximide on its own
degradation rate (Kdeg) (CCR2-HaloTag-HiBiT [2]; 1 µM, 1 µg plasmid): 0.000131 ± 1.1e-05 s⁻¹
maximal degradation at 24 h (CCR2-HaloTag-HiBiT [2]; 1 µM, 1 µg plasmid): 89 ± 2%
degradation reached after 9 h of treatment up to 24 h (CCR2-HaloTag-HiBiT [2]; 1 µM, 3 µg plasmid): ≥ 90%
maximal degradation at 24 h (CCR2-HaloTag-HiBiT [2]; 1 µM, 3 µg plasmid): 76 ± 4%
time Dmax was maintained (CCR2-HaloTag-HiBiT [2]; 1 µM, 3 µg plasmid): ~ 15 h
degradation rate (Kdeg) (CCR2-HaloTag-HiBiT [2]; 1 µM, 3 µg plasmid, one-phase exponential decay): 0.000144 ± 1.1e-05 s⁻¹
degradation rate (Kdeg) (CCR2-HaloTag-HiBiT [2]; 1 µM, 5 µg plasmid): 0.000114 ± 4.72e-05 s⁻¹
maximal degradation at 24 h (CCR2-HaloTag-HiBiT [2]; 1 µM, 5 µg plasmid): 60 ± 6%
degradation potency (pDmax50) (CCR2-HaloTag-HiBiT [2]; 3 µg plasmid, Dmax at each concentration): 6.7 ± 0.1
CCR2 degradation by HaloPROTAC3 in the absence of inhibitor (CCR2-HaloTag-HiBiT [1]; 1 µM HaloPROTAC3, 3 h): 32%
maximal degradation (HiBiT antibody signal) (CCR2-HaloTag-HiBiT [4]; A549 clone #25, 1 µM, 24 h): 39%
DC50 (CCR2-HaloTag-HiBiT [4]; A549 clone #25, 24 h): 17.1 nM
reduction of CCR2-HaloTag-HiBiT levels (HiBiT antibody signal) (CCR2-HaloTag-HiBiT [4]; A549 clone #26, 1 µM, 24 h): approximately 80%
DC50 (CCR2-HaloTag-HiBiT [4]; A549 clone #26, 24 h): 18.1 nM
pDC50 (CCR2-HaloTag-HiBiT [4]; A549 clone #26, 24 h): 7.8 ± 0.1
reduction of CCR2-HaloTag-HiBiT levels (HiBiT antibody signal) (CCR2-HaloTag-HiBiT [4]; A549 clone #27, 1 µM, 24 h): approximately 80%
DC50 (CCR2-HaloTag-HiBiT [4]; A549 clone #27, 24 h): 11.8 nM
pDC50 (CCR2-HaloTag-HiBiT [4]; A549 clone #27, 24 h): 8.0 ± 0.2
remaining CCL2 response (AUC first 20 min, normalized to 60 nM CCL2 alone) (CCR2-HaloTag-HiBiT [5]): 25 ± 19%

CC(C)C[C@H](NC(=O)[C@H](Cc1ccccc1)NC(=O)c1cnccn1)B(O)O [bortezomib]
HaloPROTAC3-mediated CCR2 degradation after pretreatment with the inhibitor (CCR2-HaloTag-HiBiT [1]): partially or fully recovered
reduction in CCR2 levels, exclusive treatment with inhibitor (CCR2-HaloTag-HiBiT [1]; inhibitor 2 h then vehicle 3 h): ~ 17%

Nc1cccc2c1C(=O)N(C1CCC(=O)NC1=O)C2=O (stereo not shown) [pomalidomide]
HaloPROTAC3-mediated CCR2 degradation after pretreatment with the inhibitor (CCR2-HaloTag-HiBiT [1]): neither pomalidomide nor idasanutlin had an effect

CCL2: endogenous chemokine ligand of CCR2
efficacy (Emax) of CCL2 (CCR2-HaloTag-HiBiT [6]): 68 ± 8%
pEC50 of CCL2-induced impedance increase (CCR2-HaloTag-HiBiT [6]): 7.6 ± 0.2
EC50 (CCR2-HaloTag-HiBiT [6]; read-out: EC50 of CCL2-induced impedance increase): 29 nM
